Data as given in the NIST ThermoML archive (doi:10.1016/j.jct.2015.02.001).
Values joined by “and” are separate entries in the source; they are usually repeats but may differ in a detail not shown here. Identical values can stand only once.

Details: Liquid, Transpiration method

COc1ccccc1C [1-methoxy-2-methylbenzene]
Details	vapor or sublimation pressure
275.8 K	0.035 kPa
277.7 K	0.0405 kPa
278.7 K	0.0432 kPa
280.6 K	0.0504 kPa
282.6 K	0.0599 kPa
285.7 K	0.0735 kPa
286.8 K	0.0821 kPa
290.2 K	0.1038 kPa
293.4 K	0.1308 kPa
296.2 K	0.1606 kPa
298.2 K	0.1819 kPa
300.2 K	0.2111 kPa and 0.2117 kPa
303.3 K	0.2601 kPa
305.1 K	0.2865 kPa
308 K	0.3491 kPa

COc1cccc(C)c1 [1-methoxy-3-methylbenzene]
Details	vapor or sublimation pressure [kPa]
276.7 K	0.0285
277.8 K	0.0314
280.6 K	0.0395
284.7 K	0.0541
289.4 K	0.0804
291.9 K	0.094
297.7 K	0.1433
301.1 K	0.1806
304.1 K	0.2286
305 K	0.2433
308 K	0.3006
310 K	0.3363
312.2 K	0.4058

COc1ccc(C)cc1 [1-methoxy-4-methylbenzene]
Details	vapor or sublimation pressure
275.2 K	0.0275 kPa
276.4 K	0.031 kPa
277.2 K	0.0326 kPa
278.8 K	0.0379 kPa
281.7 K	0.0478 kPa
284.8 K	0.0612 kPa
287.5 K	0.0759 kPa
289.2 K	0.0861 kPa
290.4 K	0.095 kPa
291.2 K	0.0997 kPa
291.3 K	0.1015 kPa
294.2 K	0.1267 kPa
296.2 K	0.1436 kPa
297.1 K	0.1563 kPa
299.2 K	0.1817 kPa
300.1 K	0.1942 kPa and 0.2003 kPa
301.1 K	0.2085 kPa
303.1 K	0.2465 kPa
305 K	0.2782 kPa
308 K	0.3386 kPa
